Test [1] relates to Jurkat cells. Nature of the test: Cellular uptake assay by flow cytometry. The following applies: 5, 12.5, 25 μM, pH 7.2 PBS, 5 min, 23° C. It is filed as cell-based. The protocol: Dansyl-tagged oligomers and octaarginine control were brought up in pH 7.2 PBS buffer at 5 μM, 12.5 μM, and 25 μM concentrations. […] Cells were plated on a microtiter plate at 3.0×10^6 cells/mL with 200 μL/well. The plate was centrifuged (1300 rpm for 3 min), media removed, and cells resuspended in PBS buffer twice.
Compounds 6(a-c) and the r8 control at varying concentrations were incubated with the cells for 5 minutes at 23° C. The microtiter plates were centrifuged and the cells were isolated, washed with PBS and resuspended in PBS containing propidium iodide (3 μg/mL, 0.01%). The cells were analyzed using a fluorescent flow cytometer (Vantoo, Stanford University) equipped with a UV laser for excitation of the dansyl fluorophore, and cells stained with propidium iodide were excluded from the analysis. The data presented are the mean fluorescent signals for the 20,000 cells analyzed.
(In general: Flow cytometry measures light scatter and fluorescence of single cells or particles in a stream.)

Test [2] has as its system Jurkat cells. Nature of the test: MTT toxicity assay. Format: cell-based. The following applies: Homo sapiens, 24 h with compound at 37° C., then 24 h fresh media. On the procedure:
Jurkat cells grown in 10% FBS in RPMI media 1640 (+ glutamine) were plated at 5-10×10^4 cells/mL on a 96-well microtiter plate in the same media. In a second 96-well plate, compound was serially diluted in triplicate over 20 wells in columns 2-11 and rows 1-3 and 5-7; typical dilutions spanned the concentration range of 400 μM to 20 nM. Columns 1 and 12 contained no cells and no compound, respectively. Rows 4 and 8 contained a serial dilution of colchicine as internal control; colchicine concentrations were generally much lower than compound concentrations in order to obtain an EC50 (half-maximal effective concentration).
Compounds were added to the plate containing cells and the cells were incubated at 37° C. for 24 h, at which point the plate was centrifuged, compound removed, and the cells resuspended in fresh media. […] Cells were incubated with MTT for 3 hours at 37° C., 150 μL solubilizing solution (10% triton X-100, 90% 0.1N HCl in isopropanol) was added to each well, and colorimetry data obtained on a plate reader.
Numerical data from plate reader was standardized using values from columns 1 and 12 and curve fitting was performed using Graph Pad Prism software to obtain an EC50 for each compound.

One may read the EC50 as the midpoint of the concentration-response curve. On to `CN(C)c1cccc2c(S(=O)(=O)NCCO)cccc12` [Compound 4, 5-(dimethylamino)-N-(2-hydroxyethyl)naphthalene-1-sulfonamide, reference compound], for which the “Cellular uptake into Jurkat cells” value in the test with Jurkat cells [1] is “does not enter Jurkat cells”. The EC50 in the test on Jurkat cells [2] turned out to be 311 µM.
